This passage reports kinact/KI and inhibition results from US20220281866A1, “5,8-DISUBSTITUTED-[1,2,4]TRIAZOLO[1,5-A]PYRIDINYL AND 5,8-DISUBSTITUTED-IMIDAZO[1,2-A]PYRIDINE DERIVATIVES USEFUL AS INHIBITORS OF ENTEROPEPTIDASE” (Janssen Pharmaceutica NV, priority 2019, published 2022).

One assay deals with T1, Bovine trypsin (Bos taurus, UniProt P00760).
T1 construct: purchased Sigma-Aldrich T1426
T1 sequence (P00760 24-246): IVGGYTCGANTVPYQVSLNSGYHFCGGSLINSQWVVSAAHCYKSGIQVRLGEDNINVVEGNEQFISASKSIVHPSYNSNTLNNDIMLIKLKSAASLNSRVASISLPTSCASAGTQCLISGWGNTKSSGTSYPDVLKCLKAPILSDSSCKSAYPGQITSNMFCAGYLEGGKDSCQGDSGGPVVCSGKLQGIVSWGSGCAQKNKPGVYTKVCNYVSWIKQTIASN
Put plainly: Biochemical Assay of Trypsin (T), H-D-CHA-AR-AMC substrate. To be noted: 15 μM substrate, 0.025 nM Trypsin; for kinact/KI: 12-point dose-dependence, time-dependent inhibition, duplicate dilutions, read-out: Kinact/KI^App; for inhibition at 0.1 µM: compound 0.1 μM; for inhibition at 1 µM: compound 1 μM; for inhibition at 10 µM: compound 10 μM. On the procedure:
Bovine trypsin was purchased from Sigma-Aldrich (Cat No. T1426), and 7-amino-4-methylcoumarin (AMC) conjugated peptide H-D-cyclohexylalanine (D-CHA)-AR-AMC was used as the substrate in the assay. The protease activity of trypsin was followed by measuring AMC production by the emission fluorescence intensity of AMC at 460 nm with the excitation at 375 nm, in the same assay buffer as used in the EP assay. The enzyme kinetic characterization studies yielded an average of KM to be 3.9±0.5 μM and the apparent turnover number kcat^app of 33.8±0.4 s^−1 (N=2).
Studies of compound inhibition against T were carried out under the conditions of 15 μM substrate and 0.025 nM Trypsin. Reaction progress curves were collected by reading the FI at 375/460 nm continuously for 1 hour at an interval of 1 minute. Similar to the procedure for Enteropeptidase described above, compounds of formula (I) were screened against Trypsin at 4 different concentrations to obtain the percent of inhibition at 10 μM, 1 μM, 0.1 μM and 0.01 μM, and accurate potencies of selected compounds against Trypsin were derived from detailed 12-point dose-dependence studies for time-dependent inhibitors.
(§1) Representative compounds of the present invention were tested according to the procedures as described in Biological Example 1 and Biological Example 2 above, with results as listed in Table 2 and Table 3, below. Results are reported as the %-inhibition (% Inh) or Kinact/KI value. Variability for the functional assay was typically within 20%. For the column headed Kinact/KI the listed measurement is the result of duplicate dilutions.

For assay [1], the target named is T2, Recombinant full-length human EP (Enteropeptidase) (Homo sapiens, UniProt P98073).
T2 construct: Recombinant full-length human EP (PeproTech, Cat #450-48C); purchased PeproTech 450-48C
T2 sequence (P98073 whole entry): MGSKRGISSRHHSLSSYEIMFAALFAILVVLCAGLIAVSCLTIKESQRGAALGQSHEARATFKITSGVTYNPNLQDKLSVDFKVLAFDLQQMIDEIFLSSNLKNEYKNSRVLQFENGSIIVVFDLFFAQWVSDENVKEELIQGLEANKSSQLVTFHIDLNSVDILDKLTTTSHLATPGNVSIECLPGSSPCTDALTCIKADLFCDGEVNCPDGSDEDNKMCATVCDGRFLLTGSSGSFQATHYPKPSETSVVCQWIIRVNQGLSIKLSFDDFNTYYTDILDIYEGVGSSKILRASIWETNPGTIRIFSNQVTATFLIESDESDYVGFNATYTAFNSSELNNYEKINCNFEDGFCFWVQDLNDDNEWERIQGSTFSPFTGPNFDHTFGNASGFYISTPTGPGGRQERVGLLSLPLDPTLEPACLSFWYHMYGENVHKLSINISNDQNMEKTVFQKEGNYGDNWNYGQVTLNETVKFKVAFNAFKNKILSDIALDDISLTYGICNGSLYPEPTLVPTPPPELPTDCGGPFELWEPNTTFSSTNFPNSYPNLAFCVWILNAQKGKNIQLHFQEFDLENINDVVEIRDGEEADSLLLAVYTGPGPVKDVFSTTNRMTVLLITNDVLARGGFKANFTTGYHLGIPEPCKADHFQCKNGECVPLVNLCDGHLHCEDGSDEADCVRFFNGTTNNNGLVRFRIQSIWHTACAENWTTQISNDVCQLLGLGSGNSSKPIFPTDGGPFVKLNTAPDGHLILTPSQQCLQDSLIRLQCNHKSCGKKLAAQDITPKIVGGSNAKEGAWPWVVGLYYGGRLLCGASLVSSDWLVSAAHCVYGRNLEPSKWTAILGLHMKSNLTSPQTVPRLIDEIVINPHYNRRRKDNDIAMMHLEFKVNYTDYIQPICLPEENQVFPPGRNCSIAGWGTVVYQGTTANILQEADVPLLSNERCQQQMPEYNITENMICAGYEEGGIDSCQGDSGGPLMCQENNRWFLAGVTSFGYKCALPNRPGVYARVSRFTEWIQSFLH
Put plainly: In vitro inhibition potencies against Enteropeptidase (EP), fluorescent peptide GDDDDK-naphthylamine substrate. The format is biochemical. As to conditions: 300 μM substrate, 1.25 nM EP; for kinact/KI: 12-point dose-dependence, time-dependent inhibition, duplicate dilutions, read-out: kinact/KI^App; for inhibition at 0.1 µM: compound 0.1 μM; for inhibition at 1 µM: compound 1 μM; for inhibition at 10 µM: compound 10 μM. On the procedure:
In vitro inhibition potencies against Enteropeptidase (EP) Recombinant full-length human EP (PeproTech, Cat #450-48C) was used in this biochemical assay, with a quenched fluorescent labeled peptide GDDDDK-naphthylamine (NA) (Sigma, Cat #G5261) as the substrate in a buffer of 50 mM Tris-HCl pH 7.4, 200 mM NaCl and 0.01% Triton X-100. The enzyme activity was measured by following the formation of the cleavage product […](NA) by monitoring the fluorescence intensity (FI) at excitation/emission wavelengths of 340/410 nm. The steady-state kinetic characterization studies yielded an average of KM to be 412±22 μM and the apparent turnover number kcat^app of 11.8±0.4 s^−1 (N=2).
Compound inhibition studies were carried out under the conditions of 300 μM substrate and 1.25 nM EP. Reaction progress curves were collected by reading the FI at 340/410 nm continuously for 1 hour at an interval of 1 minute.
To screen compounds of formula (I), inhibition was studied at 4 different compound concentrations of 10 μM, 1 μM, 0.1 μM and 0.01 μM. Initial velocity of the reaction was determined, and percent of inhibition was calculated by comparing to the reaction in the absence of compound.
Accurate measurements of the inhibition potencies of selected compounds were studied in a 12-point dose-dependence fashion. […] Compound potency was measured by determining the inactivation rate constant (kobs) following the reaction change from the initial velocity vi to the steady-state velocity vs at various compound concentrations. The inactivation rate constants (kobs), were derived by fitting the reaction progress curves to eq. 1.
where YT is the detection signal of the reaction at time t, vi and vs are the initial and the steady-state velocities of the reaction, t is the reaction time. Y0 is the background signal (when t=0).
Compound binding mechanism was shown by plotting kobs˜[compound]. Hyperbolic fitting to eq. 2
conforms to a two-step binding mechanism as shown in Scheme BIO-1.
The plateau of the curve is the forward step rate constant of the isomerization step k3, KI^app is the inhibitor concentration that leads to half-maximal rate of inhibition of enzyme under the assay conditions. Compound inhibition potency was reported by the value of k3/KI^app.
A linear dependence of eq.3
indicates a one-step binding mechanism as shown in Scheme BIO-2
Slope of the linear fit gives the second-order rate constant of the compound binding k1, which is used to represent the compound inhibition potency.
as §1

The term inhibition denotes the relative decrease from the control value, in per cent. As for `N=C(N)Nc1ccc(C(=O)Oc2ccc(CC(=O)O)n3ncnc23)cc1` [Compound 1, 2-{8-[(4-carbamimidamidophenyl)carbonyloxy]-[1,2,4]triazolo[1,5-a]pyridin-5-yl}acetic acid], on Bovine trypsin, the kinact/KI turned out to be 159000 M⁻¹ s⁻¹, the inhibition at 0.1 µM worked out at 97.2%, the inhibition at 1 µM came to 100% and the inhibition at 10 µM was 100%. In addition, in assay [1], the kinact/KI was determined as 130000 M⁻¹ s⁻¹, the inhibition at 0.1 µM amounted to 97.8%, the inhibition at 1 µM is 100% and the inhibition at 10 µM was 100%.
With `N=C(N)Nc1ccc(C(=O)Oc2ccc(CCC(=O)O)n3ccnc23)cc1` [Compound 2, 3-(8-(4-guanidinobenzoyloxy)imidazo[1,2-a]pyridin-5-yl)propanoic acid], on Bovine trypsin, the inhibition at 0.1 µM turned out to be 61%, the inhibition at 1 µM came out at 100% and the inhibition at 10 µM was 100%. Further, in assay [1], the kinact/KI turned out to be 24400 M⁻¹ s⁻¹, the inhibition at 0.1 µM came out at 27.6%, the inhibition at 1 µM turned out to be 95.1% and the inhibition at 10 µM came to 100%.
On to `N=C(N)Nc1ccc(C(=O)Oc2ccc(CCC(=O)O)n3ncnc23)cc1` [Compound 3, 3-(8-(4-guanidinobenzoyloxy)-[1,2,4]triazolo[1,5-a]pyridin-5-yl)propanoic acid], for which, at Bovine trypsin, the inhibition at 0.1 µM is 99.8%, the inhibition at 1 µM came out at 100% and the inhibition at 10 µM was 100%. In assay [1], the inhibition at 0.1 µM came to 35%, the inhibition at 1 µM was determined as 101% and the inhibition at 10 µM turned out to be 100%.
In the case of `N=C(N)Nc1ccc(C(=O)Oc2ccc(CC(=O)NCC(=O)O)n3ncnc23)cc1` [Compound 4, 2-(2-(8-(4-guanidinobenzoyloxy)-[1,2,4]triazolo[1,5-a]pyridin-5-yl)acetamido)acetic acid], at Bovine trypsin, the inhibition at 0.1 µM is 99.7%, the inhibition at 1 µM is 100% and the inhibition at 10 µM turned out to be 100%. In addition, in assay [1], the inhibition at 0.1 µM came out at 48.1%, the inhibition at 1 µM was 101% and the inhibition at 10 µM came to 100%.
`N=C(N)Nc1ccc(C(=O)Oc2ccc(CC(=O)NC(CC(=O)O)C(=O)O)n3ncnc23)cc1` (stereo not shown) [Compound 5, 2-(2-(8-(4-guanidinobenzoyloxy)-[1,2,4]triazolo[1,5-a]pyridin-5-yl)acetamido)succinic acid]: on Bovine trypsin, the inhibition at 0.1 µM worked out at 98.3%, the inhibition at 1 µM came to 100% and the inhibition at 10 µM is 100%. Besides, in assay [1], the inhibition at 0.1 µM amounted to 48.3%, the inhibition at 1 µM was found to be 101% and the inhibition at 10 µM is 100%.
Turning to `N=C(N)Nc1ccc(C(=O)Oc2ccc(CC(=O)N(CC(=O)O)CC(=O)O)n3ncnc23)cc1` [Compound 6, 2,2′-(2-(8-(4-guanidinobenzoyloxy)-[1,2,4]triazolo[1,5-a]pyridin-5-yl)acetamido)diacetic acid], at Bovine trypsin, the inhibition at 0.1 µM was determined as 89.6%, the inhibition at 1 µM was 99.9% and the inhibition at 10 µM amounted to 100%. Further, in assay [1], the inhibition at 0.1 µM came to 20.9%, the inhibition at 1 µM amounted to 72.9% and the inhibition at 10 µM amounted to 101%.
As for `N=C(N)Nc1ccc(C(=O)Oc2ccc(CC(=O)NC(CCC(=O)O)(CCC(=O)O)CCC(=O)O)n3ncnc23)cc1` [Compound 7, 4-(2-carboxyethyl)-4-(2-(8-(4-guanidinobenzoyloxy)-[1,2,4]triazolo[1,5-a]pyridin-5-yl)acetamido)heptanedioic acid], at Bovine trypsin, the inhibition at 0.1 µM stood at 94.1%, the inhibition at 1 µM was 100% and the inhibition at 10 µM is 100%. For the same molecule, in assay [1], the inhibition at 0.1 µM came to 37.8%, the inhibition at 1 µM is 100% and the inhibition at 10 µM amounted to 100%.
On to `CS(=O)(=O)NC(=O)Cc1ccc(OC(=O)c2ccc(NC(=N)N)cc2)c2ncnn12` [Compound 8, 5-(2-(methylsulfonamido)-2-oxoethyl)-[1,2,4]triazolo[1,5-a]pyridin-8-yl4-guanidinobenzoate], for which, on Bovine trypsin, the kinact/KI is 163000 M⁻¹ s⁻¹, the inhibition at 0.1 µM worked out at 98.8%, the inhibition at 1 µM came to 100% and the inhibition at 10 µM worked out at 99.9%. Besides, in assay [1], the kinact/KI is 181000 M⁻¹ s⁻¹, the inhibition at 0.1 µM came to 101%, the inhibition at 1 µM stood at 100% and the inhibition at 10 µM amounted to 100%.
Regarding `N=C(N)Nc1ccc(C(=O)Oc2ccc(CC(=O)O)n3ccnc23)cc1` [Compound 9, 2-(8-(4-guanidinobenzoyloxy)imidazo[1,2-a]pyridin-5-yl)acetic acid], at Bovine trypsin, the kinact/KI stood at 111000 M⁻¹ s⁻¹, the inhibition at 0.1 µM worked out at 96.3%, the inhibition at 1 µM is 101% and the inhibition at 10 µM came to 101%. In assay [1], the kinact/KI came to 210000 M⁻¹ s⁻¹, the inhibition at 0.1 µM was 101%, the inhibition at 1 µM came out at 100% and the inhibition at 10 µM is 100%.
On to `N=C(N)Nc1ccc(C(=O)Oc2ccc(CC(=O)O)n3ncnc23)s1` [Compound 10, 2-(8-(5-guanidinothiophene-2-carbonyloxy)-[1,2,4]triazolo[1,5-a]pyridin-5-yl)acetic acid], for which, on Bovine trypsin, the inhibition at 0.1 µM was found to be 93.8%, the inhibition at 1 µM is 99.9% and the inhibition at 10 µM came to 99.8%. Moreover, in assay [1], the inhibition at 0.1 µM was 82%, the inhibition at 1 µM came out at 100% and the inhibition at 10 µM amounted to 100%.
Take `N=C(N)Nc1ccc(C(=O)Oc2ccc(Cc3nn[nH]n3)n3ncnc23)cc1` [Compound 11, 5-((2H-tetrazol-5-yl)methyl)-[1,2,4]triazolo[1,5-a]pyridin-8-yl 4-guanidinobenzoate]: at Bovine trypsin, the inhibition at 0.1 µM is 99.3%, the inhibition at 1 µM came to 100% and the inhibition at 10 µM amounted to 100%. In addition, in assay [1], the inhibition at 0.1 µM came to 89.7%, the inhibition at 1 µM worked out at 101% and the inhibition at 10 µM was determined as 100%.
Take `COc1cc(C(=O)Oc2ccc(CC(=O)O)n3ncnc23)ccc1NC(=N)N` [Compound 12, 2-(8-(4-guanidino-3-methoxybenzoyloxy)-[1,2,4]triazolo[1,5-a]pyridin-5-yl)acetic acid]: at Bovine trypsin, the inhibition at 0.1 µM turned out to be 13.8%, the inhibition at 1 µM stood at 72.4% and the inhibition at 10 µM worked out at 99.9%. In addition, in assay [1], the inhibition at 0.1 µM was 20.8%, the inhibition at 1 µM stood at 87.1% and the inhibition at 10 µM was 101%.
For the molecule `N=C(N)Nc1ccc(C(=O)Oc2ccc(CC(=O)O)n3ncnc23)cc1I` [Compound 13, 2-(8-(4-guanidino-3-iodobenzoyloxy)-[1,2,4]triazolo[1,5-a]pyridin-5-yl)acetic acid], on Bovine trypsin, the inhibition at 0.1 µM was 0.9%, the inhibition at 1 µM came out at 7.6% and the inhibition at 10 µM is 45%. In addition, in assay [1], the inhibition at 0.1 µM is -1.5%, the inhibition at 1 µM is 15.8% and the inhibition at 10 µM amounted to 65%.
